Laboratory results reported in ChEMBL document CHEMBL1140084, “Discovery and evaluation of 4-(2-(4-chloro-1H-pyrazol-1-yl)ethylamino)-3-(6-(1-(3-fluoropropyl)piperidin-4-yl)-4-methyl-1H-benzo[d]imidazol-2-yl)pyridin-2(1H)-one (BMS-695735), an orally efficacious inhibitor of insulin-like growth factor-1 receptor kinase with broad spectrum in vivo antitumor …” (J Med Chem, 2008).

Key:
[1] = Antiproliferative activity against transgenic mouse SAL cells overexpressing human IGF1R assessed as [3H]thymidine incorporation after 72 hrs
Cytochrome P450 3A4 = Cytochrome P450 3A4 (Homo sapiens, UniProt P08684); experiment: Inhibition of human recombinant CYP3A4 in human liver microsomes using BFC as a substrate
Cytochrome P450 3A4, sequence (P08684 whole entry): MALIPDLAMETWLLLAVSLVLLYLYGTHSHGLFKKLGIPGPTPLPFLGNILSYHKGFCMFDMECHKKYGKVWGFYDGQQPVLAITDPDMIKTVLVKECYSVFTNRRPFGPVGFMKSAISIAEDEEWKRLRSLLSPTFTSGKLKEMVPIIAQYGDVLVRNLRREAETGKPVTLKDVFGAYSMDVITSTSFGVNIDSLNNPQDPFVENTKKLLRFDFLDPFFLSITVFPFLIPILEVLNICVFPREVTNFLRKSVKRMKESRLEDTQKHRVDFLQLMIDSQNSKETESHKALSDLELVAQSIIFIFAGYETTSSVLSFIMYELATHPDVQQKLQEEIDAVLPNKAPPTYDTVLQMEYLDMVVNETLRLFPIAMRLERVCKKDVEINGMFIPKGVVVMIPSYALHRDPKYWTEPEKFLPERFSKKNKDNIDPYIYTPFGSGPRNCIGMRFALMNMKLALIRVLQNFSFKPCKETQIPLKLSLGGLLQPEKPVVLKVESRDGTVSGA

[2] = target: T1, Nuclear receptor subfamily 1 group I member 2 (Homo sapiens, UniProt O75469); experiment: Induction of PXR transactivation
T1 sequence (O75469 whole entry): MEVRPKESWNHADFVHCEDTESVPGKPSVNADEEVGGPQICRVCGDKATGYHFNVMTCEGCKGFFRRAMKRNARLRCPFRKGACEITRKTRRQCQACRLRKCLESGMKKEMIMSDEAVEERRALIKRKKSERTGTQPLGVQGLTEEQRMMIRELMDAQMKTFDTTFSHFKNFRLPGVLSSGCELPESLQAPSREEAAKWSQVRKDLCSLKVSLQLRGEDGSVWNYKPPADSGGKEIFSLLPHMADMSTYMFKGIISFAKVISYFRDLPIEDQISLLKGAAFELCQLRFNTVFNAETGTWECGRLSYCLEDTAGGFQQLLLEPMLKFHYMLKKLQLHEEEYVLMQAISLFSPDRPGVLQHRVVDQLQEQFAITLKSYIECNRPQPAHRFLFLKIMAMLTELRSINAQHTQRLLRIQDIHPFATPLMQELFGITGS

[3] = AUC in mouse at 20 mg/kg after 4 hrs; type: ADME, organism-based; parameters: time < 4 hr, dose 20 mg/kg; conditions: plasma
Hepatocyte = experiment: Increase in CYP3A4 mRNA expression level in human hepatocytes; type: functional, cell-based
[4] = Protein binding in mouse plasma at 10 uM by equilibrium dialysis; type: ADME, cell-free; conditions: read-out: PPB (converted)
[5] = target: PXR (nuclear receptor subfamily 1 group I member 2) (Homo sapiens, UniProt O75469); experiment: Induction of PXR transactivation at 10 uM relative to rifampicin; conditions: read-out: Activity
[6] = Apparent permeability across human CaCo2 cells; type: ADME, cell-based; conditions: Caco-2
[7] = Protein binding in human plasma at 10 uM; type: ADME, cell-free; conditions: read-out: PPB

IC50 (Cytochrome P450 3A4) [µM] | EC20 [2] [µM] | AUC at 4 h [3] [µM·h] | SMILES | IC50 [1] [µM] | Activity (Hepatocyte) | fraction unbound at 10 µM [4] | activity at 10 µM [5] [%] | Papp [6] [×10⁻⁶ cm/s] | fraction unbound at 10 µM [7]
10 | > 50 | 0.28 | COc1ccc([C@H](O)CNc2cc[nH]c(=O)c2-c2nc3c(C)cc(C4CCN(CCCF)CC4)cc3[nH]2)cc1Cl | 0.04 | – | – | – | – | –
7.7 | > 50 | 0.49 | COCCN1CCC(c2cc(C)c3nc(-c4c(NC[C@@H](O)c5ccc(OC)c(Cl)c5)cc[nH]c4=O)[nH]c3c2)CC1 | 0.013 | – | – | – | – | –
11 | > 50 | – | COCCN1CCC(c2cc(C)c3nc(-c4c(NC[C@@H](O)c5cccc(Cl)c5)cc[nH]c4=O)[nH]c3c2)CC1 | 0.217 | – | – | – | – | –
40 | > 50 | 0.4 | Cc1cc(C2CCN(C)CC2)cc2[nH]c(-c3c(NCCn4cc(Cl)cn4)cc[nH]c3=O)nc12 | 0.162 | – | – | – | – | –

SMILES | IC50 (Cytochrome P450 3A4) [µM] | EC20 [2] [µM] | AUC at 4 h [3] [µM·h] | IC50 [1] [µM] | Activity (Hepatocyte) | fraction unbound at 10 µM [4] | activity at 10 µM [5] [%] | Papp [6] [×10⁻⁶ cm/s] | fraction unbound at 10 µM [7]
Cc1cc(N2CCOCC2)cc2[nH]c(-c3c(NC[C@@H](O)c4cccc(Cl)c4)cc[nH]c3=O)nc12 | – | 1.1 | 50 | 0.11 | Dose-dependent effect | < 0.001 | 125 | 1.8 | < 0.002
